For test [1], the target named is T1, Peroxisome proliferator-activated receptor alpha (Canis lupus familiaris, UniProt Q95N78).
T1 sequence (Q95N78 whole entry): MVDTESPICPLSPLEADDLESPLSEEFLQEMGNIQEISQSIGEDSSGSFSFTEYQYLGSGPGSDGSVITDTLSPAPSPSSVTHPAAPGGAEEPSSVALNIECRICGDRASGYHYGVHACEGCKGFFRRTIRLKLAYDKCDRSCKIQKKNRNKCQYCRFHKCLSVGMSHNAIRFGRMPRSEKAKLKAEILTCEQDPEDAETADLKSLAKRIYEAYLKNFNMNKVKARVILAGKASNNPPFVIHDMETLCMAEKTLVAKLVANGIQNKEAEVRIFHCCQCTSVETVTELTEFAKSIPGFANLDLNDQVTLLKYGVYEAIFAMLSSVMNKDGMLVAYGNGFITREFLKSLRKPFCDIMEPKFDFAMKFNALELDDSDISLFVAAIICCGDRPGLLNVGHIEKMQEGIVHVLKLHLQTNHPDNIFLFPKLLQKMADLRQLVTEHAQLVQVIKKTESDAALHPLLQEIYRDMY
Nature of the test: Effective concentration against canine PPAR-alpha in Gal4 transactivation assay.

The nature of test [2]: In vitro binding affinity for PPAR-alpha. Details: species or system Homo sapiens.
Test [3] relates to Cricetinae gen. sp. Nature of the test: Effect at an oral dose of 0.1 mg/kg/day for 14 days on serum cholesterol level of hamster. The format is functional, Cricetulus griseus.
The test system of test [4] is Cricetinae gen. sp. Description: Effect at an oral dose of 0.3 mg/kg/day for 14 days on serum cholesterol level of hamster. The class given is functional, Cricetulus griseus.
For test [5], the system named is Cricetinae gen. sp. Nature of the test: Effect at an oral dose of 1 mg/kg/day for 14 days on serum triglyceride level of hamster. The format is functional, Cricetulus griseus.
Test [6] relates to Canis familiaris. Nature of the test: Effect on cholesterol lowering in male Beagle dog at an oral dose of 0.01 mkd for 3 days.
The subject of test [7] is Canis familiaris. Nature of the test: Effect on cholesterol lowering in male Beagle dog at an oral dose of 0.01 mkd for 7 days.
Test [8] relates to Canis familiaris. Description: Effect on cholesterol lowering in male Beagle dog at an oral dose of 0.01 mkd for 10 days.
Test [9] concerns Canis familiaris. Nature of the test: Effect on cholesterol lowering in male Beagle dog at an oral dose of 0.03 mkd for 10 days.

Results on one compound are retold here after ChEMBL document CHEMBL1144356 (J Med Chem, 2005).

What is called EC50 is the concentration at which the effect is half-maximal. A low value points to an effect from little substance. As usually defined, the IC50 is the concentration at which inhibition is half-maximal.

With `CC[C@@]1(C(=O)O)Cc2cc(OCCCOc3ccc(OC(F)(F)F)cc3Cl)ccc2O1`, the EC50 in test [1] is 2 nM. Also, the IC50 in [2] was determined as 6 nM. Also, the TC is given as -15% in the test on Cricetinae gen. sp. [3]; -30% in the test with Cricetinae gen. sp. [4]; -6.7% in the test on Canis familiaris [6]; -7.2% in the test with Canis familiaris [7]; -11.7% with Canis familiaris [8]; -17.9% in the test with Canis familiaris [9]. Further, the TG with Cricetinae gen. sp. [5] is on record as -43.65%.
